“Also recorded” adds a separate entry of the source.

The test system of one data set is SNU-398 cells. The experiment in a line: Cell viability assay (MTT/MTS). The data set is classed as cell-based, human. The following applies: for cell viability / number of viable cells: SNU-398 (high SALL4), 72 h; for cell viability upon SALL4 knockdown: SNU-398, MTS. As for the experimental part:
Cell viability was determined 72 hours after peptide treatments. Absorbance at 490 nm is directly correlated to cell viability. Wild type functional SALL4 peptide (wt), mutant non-functional SALL4 peptide (Mut.), trichostatin A (TSA), scrambled control peptide (Scr.), wild type peptide+PTEN inhibitor SF1670 (wt+Inh.) were given to the cells at the indicated concentration. PTEN inhibitor concentration was 400 nM. (31C, 31D) Western blot analyses of the effects of peptides on PTEN, AKT, and pAKT expression on SNU-398 (31C) and SNU-387 (31D) cells 72 hours following peptide treatments. 20 μM of wt or Scr. peptide or 100 nM of TSA was used. PTEN inhibitor concentration was 400 nM. (31E) Representative images show NOD/SCID mice transplanted with Scr peptide- and wt peptide-treated SNU-398 cells (left) and the dissected subcutaneous tumors (right). Arrow indicates subcutaneous tumor. (31F) Growth curve of subcutaneous tumors (left panel) and tumor weight of tumors dissected at day 26 post-transplantation (right panel). Results are mean±s.d. n=5; * P<0.05. (31G) Representative images show NOD/SCID mice transplanted with 3 million SNU-398 cells at the left flank and treated intraperitoneally for five consecutive days with 56 mg/kg body weight TAT-Mut. peptide or 60 mg/kg body weight wt peptide (top panel) and the dissected subcutaneous tumors (bottom). (31H) Tumor weight of tumors dissected at day 18 post-transplantation and post-treatment of mice treated intraperitoneally with TAT fusion peptides as described in 5 g. Results are mean±s.d. n=5; * P<0.05.
Cell viability assay (MTT) (Invitrogen) was performed according to the manufacturer's instructions. Briefly—10000 cells were seeded in 100 ul medium in 96 well plates. The next day cells were treated as indicated on the figures. At the designated time after the treatment 20 ul of 5 mg/ml MTT solution was added to each well. After 3.5 h incubation at 37 C the medium was removed and the reaction was terminated with a solution of 4 mM HCl, 0.1% Nondet P-40 (NP40) all in isopropanol in dark on orbital shaker for […]. at room temperature. The absorbance was read at 590 nm with a reference filter of 620 nm in Spectromax M3 (ABI) spectrophotometer.
Multiple leukemic and solid tumor cancer cell lines with high or low/no SALL4 expression (FIG. 10A) were chosen to test the biological effect(s) of the wild type peptide. Wild type or scrambled peptide was delivered into tumor cells at various concentrations, and their effects on cells were evaluated 72 hours post-treatment by the MTS cell viability assay. […] The effect of wild type peptide is SALL4-specific, as it had no effect on KBM5, an AML cell line with undetectable endogenous SALL4 expression. We were surprised to see that the wild type peptide had no effect on a high SALL4-expressing endometrioid cancer cell line, AN3CA. This prompted checking whether PTEN, a gene repressed by SALL4 through its interaction with NuRD 27, was present in this cell line. According to the model herein, the function of wild type peptide requires both the expression of SALL4 and intact SALL4 downstream target genes, such as PTEN. In tumor cells with PTEN deletion, even though wild type peptide could compete with endogenous SALL4 in interacting with the HDAC complex, an anti-proliferative effect might not be observed. Therefore, expression of PTEN was evaluated in AN3CA cells along with other cell lines. While PTEN protein was present in all the other cell lines, it was absent in AN3CA cells (FIG. 10C), with reported deletion mutation of the gene in this cell line 40,41. […] Furthermore, the anti-proliferative effect also required certain downstream targets, such as PTEN.
7000 cells were seeded in each wells of a microtiter plate in 100 μL of complete medium. Cells from each treatment were seeded in duplicate. Controls using the same medium without cells were set up in parallel. […]

Data set [1] relates to PTEN/AKT pathway. The experiment in a line: PTEN/AKT pathway expression in SNU-398 cells after treatment (Western blot, mRNA). The data set is classed as cell-based, human. The settings on record: for PTEN protein expression / phosphorylated AKT (pAKT) level: SNU-398, Western blot. An excerpt: The induction of Pten expression was not affected when wt peptide was administrated together with a Pten inhibitor. AKT, a molecule with levels of phosphorylation controlled by the expression of Pten was affected by the wt peptide addition accordingly. […] The effect of wt peptide on pAKT was abrogated by the Pten inhibitor. […] In contrast, the protein expression level of endogenous Pten was very high in the none-SALL4 expressing SNU387 cells.
Then tested was whether this peptide could reverse the repressive effect of SALL4 on its target genes. The focus was onPTEN, since it is implicated in SALL4-mediated leukemogenesis (Yang et al., Blood, 112:805-813 (2008); Lu et al., PLoS One, 4:e5577 (2009)). In addition, it was previously reported that SALL4 could specifically bind to the PTEN promoter region in a chromatin immunoprecipitation (ChIP) assay (Lu et al., PLoS One, 4:e5577 (2009)). When SALL4 was overexpressed in 293T cells, an enrichment of SALL4 as well as decreased H3 acetylation at this binding site was observed, which correlated with decreased PTEN RNA expression (Lu et al., PLoS One, 4:e5577 (2009))). Therefore, it was hypothesized that SALL4 could recruit the HDAC/NuRD complex to repress PTEN, and that the wild type peptide would compete with endogenous SALL4 in recruiting the HDAC/NuRD complex to the PTEN promoter, and release the repression effect of SALL4 on PTEN. Furthermore, this model would predict that wild type peptide treatment of SALL4-expressing cells would lead to increased epigenetic markers of gene activation, such as H3 acetylation, at the PTEN promoter binding site, as well as an increase in PTEN expression. To test this possibility, SNU-398 cells were treated with scrambled or wild type peptide and subsequently evaluated for PTEN expression and H3 acetylation at the SALL4 binding site at the PTEN promoter region. […] Therefore, the results herein are compatible with the model that SALL4 recruits HDACs to repress PTEN expression, and blocking the SALL4-HDAC interaction with the wild type peptide results in increased expression of PTEN.
To confirm the involvement of PTEN tumor suppressor in SALL4 peptide-induced reduction of number of viable HCC cells, PTEN expression was analyzed by western blot upon drug treatment. […] Whether the increase in PTEN expression upon SALL4 peptide treatment has an effect in PI3K signalling by dephosphorylating AKT was examined.
To confirm the involvement of the PTEN tumor suppressor in the SALL4 peptide-induced reduction of HCC cell viability, PTEN expression was analyzed by western blot upon drug treatment. […] If the increase in PTEN expression has an effect in PI3K signaling was next examined. PTEN functions as a phosphatase to dephosphorylate AKT.

The subject of data set [2] is PTEN/AKT pathway. The experiment in a line: PTEN/AKT pathway expression in THP1 cells (Western blot). The data set is classed as cell-based. The source says:
To further evaluate the specificity of the SALL4/PTEN pathway, next investigated was whether wild type peptide treatment could affect the expression of PTEN and its downstream target, phosphorylated AKT (pAKT).

Take `CC(/C=C/C(=O)NO)=C\[C@@H](C)C(=O)c1ccc(N(C)C)cc1` [TSA, Trichostatin A, reference compound]: the “cell viability / number of viable cells” value in the data set with SNU-398 cells is reported as “effectively induced reduction in the number of viable HCC cells”. For the same molecule, in the data set on PTEN/AKT pathway [1], the PTEN protein expression result is given as “also induced PTEN expression; also recorded: also induced PTEN upregulation” and the “phosphorylated AKT (pAKT) level” value is listed as “significantly reduced”. Moreover, the PTEN protein expression entry with PTEN/AKT pathway [1] (listed as Trichostatin A) is “levels of PTEN were elevated”. Also, in the data set on PTEN/AKT pathway [2], the PTEN expression entry was “increased PTEN expression” and the “pAKT on Ser 473” value is “significantly reduced”.

With “CTATTTAGCCAAAGGCAAA (short hairpin RNA, chemistry and delivery not given here, further chemistry not given here) [E5 shRNA]”, the “cell viability upon SALL4 knockdown” value with SNU-398 cells was “number of viable cells decreased”; in the data set on SNU-398 cells (listed as E5), “decreased cell viability”.

Consider “H-MSRRKQAKPQHI-OH [wt peptide, MSRRKQAKPQHI]”, for which the “cell viability / number of viable cells” value with SNU-398 cells is “decreased cell viability; also recorded: reduced the amount of living cells in dose dependent manner”; in the data set with SNU-398 cells (listed as SALL4 peptide (wt)) it was “the number of viable cells was reduced”; with SNU-398 cells (listed as wild type peptide), “decreased cell viability”. Further, the “Pten mRNA expression” value in the data set on PTEN/AKT pathway [1] (SNU-398) is given as “increased Pten mRNA expression level”. The “elevation of PTEN expression level” value with PTEN/AKT pathway [1] (SNU-398, 24 h, relative to alfa-tubulin) is on record as “More than 2 times”. The PTEN protein expression result with PTEN/AKT pathway [1] is “noticeably higher”; with PTEN/AKT pathway [1] (listed as SALL4 peptide), “extensive increase in PTEN protein”; in the data set on PTEN/AKT pathway [1] (listed as SALL4 peptide (wt)) it was “extensive increased in PTEN expression”; in the data set on PTEN/AKT pathway [1] (listed as Wild type peptide), “increased PTEN protein”; in the data set on PTEN/AKT pathway [1] (listed as wild type peptide), “increased PTEN expression”. Also, the figures for the “phosphorylated AKT (pAKT) level” value in the data set with PTEN/AKT pathway [1] (listed as SALL4 peptide) and in the data set on PTEN/AKT pathway [1] (listed as wt) were “significant reduction of pAKT level; also recorded: marked reduction of phospho AKT protein levels” and “significantly reduced”, respectively. The PTEN expression entry in the data set on PTEN/AKT pathway [2] is listed as “increased PTEN expression”. In addition, the “pAKT on Ser 473” value with PTEN/AKT pathway [2] is listed as “significantly reduced”.

For “Scr peptide: same 12 amino acids as the wt peptide, but in a scrambled sequence; negative control (SRMRQKIHPKIQ) [reference compound]”, the “cell viability / number of viable cells” value in the data set on SNU-398 cells is listed as “remained unaffected”. In addition, in the data set with PTEN/AKT pathway [1], the PTEN protein expression result was “an effect not observed” and the “phosphorylated AKT (pAKT) level” value is “No effect”. The PTEN protein expression result in the data set with PTEN/AKT pathway [1] (listed as scrambled (mutant) peptide) is listed as “does not exhibit the same properties”. Besides, the PTEN protein expression entry in the data set on PTEN/AKT pathway [1] (listed as scrambled peptide) is “not observed”. For the same molecule, in the data set on PTEN/AKT pathway [2], the PTEN expression result is listed as “No effect” and the “pAKT on Ser 473” value is given as “No effect”.
